Laboratory results as given in ChEMBL document CHEMBL6109147, “Discovery of Potent STING Inhibitors Bearing a Difluorobenzodioxol Structural Motif as Potent Anti-Inflammatory Agents” (J Med Chem, 2025).
Activity calls are given as the source filed them. No cut-off for these calls is given here.

What was measured:
[1] = Inhibition of intracellular DNA induced Ifnb mRNA expression in human IMR-90 cells measured after 6 hrs by PCR assay; conditions: IMR-90, 6 h
[2] = biological target: T1, Stimulator of interferon genes protein (Mus musculus, UniProt Q3TBT3); assay: Inhibition of mouse STING in mouse RAW cells assessed as secreted luciferase reporter of interferon stimulated gene (ISG) measured after 24 hrs incubation by QUANTI-Luc detection assay; type: cell-based
T1 sequence (Q3TBT3 whole entry): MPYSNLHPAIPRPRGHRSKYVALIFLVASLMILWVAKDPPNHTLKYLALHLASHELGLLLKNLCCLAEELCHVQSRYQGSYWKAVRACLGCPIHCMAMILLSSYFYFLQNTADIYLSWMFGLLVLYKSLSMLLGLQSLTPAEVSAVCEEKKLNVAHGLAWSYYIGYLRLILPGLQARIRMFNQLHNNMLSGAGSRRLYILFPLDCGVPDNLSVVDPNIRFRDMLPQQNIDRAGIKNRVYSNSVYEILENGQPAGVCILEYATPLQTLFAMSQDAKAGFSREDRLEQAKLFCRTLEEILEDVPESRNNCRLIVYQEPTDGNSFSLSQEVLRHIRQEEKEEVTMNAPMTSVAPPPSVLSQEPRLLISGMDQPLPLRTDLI

[3] = biological target: Stimulator of interferon genes protein (Homo sapiens) (UniProt Q86WV6); assay: Binding affinity to Flag-tagged human STING expressed in HEK293T cells assessed as labelling measured after 1 hr by TAMRA-N3 fluorescent assay; type: cell-based
[4] = biological target: Stimulator of interferon genes protein (Homo sapiens) (UniProt Q86WV6); assay: Binding affinity to Flag-tagged human STING expressed in HEK293T cells assessed as labelling pretreated for 15 mins with (E)-1-(5-(3-Cyanoprop-1-en-1-yl)-1H-indol-3-yl)-3-(2,2-difluorobenzo[d][1,3]dioxol-5-yl)urea followed by treated at 1 uM for 1 hr by TAMRA-N3 fluorescent assay; type: cell-based; conditions: time 75.0 min
[5] = AUC (0 to infinity) in Sprague-Dawley rat at 1 mg/kg, iv; type: ADME, organism-based; conditions: in vivo
[6] = MRT (0 to infinity) in Sprague-Dawley rat at 1 mg/kg, iv; type: ADME, organism-based; conditions: in vivo
[7] = Half life in Sprague-Dawley rat at 1 mg/kg, iv; type: ADME, organism-based; conditions: in vivo
[8] = Volume of distribution at steady state in Sprague-Dawley rat at 1 mg/kg, iv; type: ADME, organism-based; conditions: in vivo
[9] = Metabolic stability in rat liver microsomes assessed as half life; type: ADME, Microsome
[10] = Metabolic stability in rat liver microsomes assessed as liver intrinsic clearance; type: ADME, Microsome
[11] = test system: Mus musculus; assay: Anti-inflammatory activity against MSA-2 induced C57BL/6 mouse inflammation model assessed as inhibition of MSA-2 induced Cxcl-10 mRNA expression in kidney at 10 mg/kg, ip pre-treated for 1 hr followed by stimulated with MSA-2 for 4 hrs by real-time PCR analysis; type: functional, organism-based; conditions: time 5.0 hrs
[12] = test system: Mus musculus; assay: Anti-inflammatory activity against MSA-2 induced C57BL/6 mouse inflammation model assessed as inhibition of MSA-2 induced IP-10 level in kidney at 10 mg/kg, ip pre-treated for 1 hr followed by stimulated with MSA-2 for 4 hrs by ELISA; type: functional, organism-based; conditions: time 5.0 hrs
[13] = Metabolic stability in human liver microsomes assessed as half life; type: ADME, Microsome
[14] = Metabolic stability in mouse liver microsomes assessed as half life; type: ADME, Microsome
[15] = test system: Mus musculus; assay: Anti-inflammatory activity against MSA-2 induced C57BL/6 mouse inflammation model assessed as inhibition of MSA-2 induced Isg15 mRNA expression in kidney at 10 mg/kg, ip pre-treated for 1 hr followed by stimulated with MSA-2 for 4 hrs by real-time PCR analysis; type: functional, organism-based; conditions: time 5.0 hrs
[16] = Metabolic stability in human liver microsomes assessed as liver intrinsic clearance; type: ADME, Microsome
[17] = test system: Mus musculus; assay: Anti-inflammatory activity against MSA-2 induced C57BL/6 mouse inflammation model assessed as inhibition of MSA-2 induced IL-6 level in plasma at 10 mg/kg, ip pre-treated for 1 hr followed by stimulated with MSA-2 for 4 hrs by ELISA; type: functional, organism-based; conditions: time 5.0 hrs
[18] = test system: Mus musculus; assay: Anti-inflammatory activity against MSA-2 induced C57BL/6 mouse inflammation model assessed as inhibition of MSA-2 induced Isg56 RNA expression in kidney at 10 mg/kg, ip pre-treated for 1 hr followed by stimulated with MSA-2 for 4 hrs by real-time PCR analysis; type: functional, organism-based; conditions: time 5.0 hrs
[19] = test system: Mus musculus; assay: Anti-inflammatory activity against MSA-2 induced C57BL/6 mouse inflammation model assessed as inhibition of MSA-2 induced IL-6 level in kidney at 10 mg/kg, ip pre-treated for 1 hr followed by stimulated with MSA-2 for 4 hrs by ELISA; type: functional, organism-based; conditions: time 5.0 hrs
[20] = test system: Mus musculus; assay: Anti-inflammatory activity against MSA-2 induced C57BL/6 mouse inflammation model assessed as inhibition of MSA-2 induced IL-6 mRNA expression in kidney at 10 mg/kg, ip pre-treated for 1 hr followed by stimulated with MSA-2 for 4 hrs by real-time PCR analysis; type: functional, organism-based; conditions: time 5.0 hrs
[21] = Clearance in Sprague-Dawley rat at 1 mg/kg, iv; type: ADME, organism-based; conditions: in vivo
[22] = test system: Mus musculus; assay: Anti-inflammatory activity against MSA-2 induced C57BL/6 mouse inflammation model assessed as inhibition of MSA-2 induced TNF-alpha mRNA expression in kidney at 10 mg/kg, ip pre-treated for 1 hr followed by stimulated with MSA-2 for 4 hrs by real-time PCR analysis; type: functional, organism-based; conditions: time 5.0 hrs
[23] = Metabolic stability in mouse liver microsomes assessed as microsomal intrinsic clearance; type: ADME, Microsome; conditions: read-out: CLH
[24] = Metabolic stability in mouse liver microsomes assessed as liver intrinsic clearance; type: ADME, Microsome
[25] = Metabolic stability in human liver microsomes assessed as microsomal intrinsic clearance; type: ADME, Microsome; conditions: read-out: CLH
[26] = Metabolic stability in rat liver microsomes assessed as microsomal intrinsic clearance; type: ADME, Microsome; conditions: read-out: CLH
[27] = test system: HEK293; assay: Protection of Cisplatin induced apoptosis in human HEK293 cells assessed as apoptotic cells at 10 uM measured after 72 hrs by flow cytometry; type: functional, cell-based
[28] = test system: Mus musculus; assay: Anti-inflammatory activity against MSA-2 induced C57BL/6 mouse inflammation model assessed as inhibition of MSA-2 induced IP-10 level in plasma at 10 mg/kg, ip pre-treated for 1 hr followed by stimulated with MSA-2 for 4 hrs by ELISA; type: functional, organism-based; conditions: time 5.0 hrs

Sequence of Stimulator of interferon genes protein (Homo sapiens) (Q86WV6 whole entry): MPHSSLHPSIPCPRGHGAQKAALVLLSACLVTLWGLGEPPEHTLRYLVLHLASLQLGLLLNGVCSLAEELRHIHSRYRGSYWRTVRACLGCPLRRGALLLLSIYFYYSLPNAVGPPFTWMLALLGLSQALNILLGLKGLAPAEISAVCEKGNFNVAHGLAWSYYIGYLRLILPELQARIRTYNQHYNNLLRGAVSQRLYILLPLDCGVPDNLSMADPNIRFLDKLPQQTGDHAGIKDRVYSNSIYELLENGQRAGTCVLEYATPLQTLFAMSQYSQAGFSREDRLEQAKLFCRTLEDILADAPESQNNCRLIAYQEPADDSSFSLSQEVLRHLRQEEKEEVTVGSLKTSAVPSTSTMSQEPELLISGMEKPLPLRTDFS

SMILES: CC[C@@H]1NC(=O)[C@@H]2[C@H](Cl)[C@H](Cl)CN2C(=O)[C@H](CC)NC(=O)C[C@H](c2ccccc2)NC(=O)[C@H](CO)NC1=O
- IC50 [1]: 10800 nM

SMILES: Fc1cc2[nH]cc(Nc3nc4cc(C5CCCC5)ccc4[nH]3)c2cc1F
- IC50 [2]: 305 nM

SMILES: C#Cc1ccc2[nH]cc(NC(=O)Nc3ccc4c(c3)OC(F)(F)O4)c2c1
- Activity [3]: Dose-dependent-effect
- IC50 [2]: 5450 nM
- Activity [4]: inactive

SMILES: Fc1ccc2[nH]cc(Nc3nc4cc(C5CCCC5)ccc4[nH]3)c2c1
- IC50 [2]: 210 nM

SMILES: O=C(Nc1ccc2c(c1)OC(F)(F)O2)Nc1c[nH]c2ccc(Cl)cc12
- IC50 [2]: 815 nM

SMILES: O=C(Nc1cccc2c1OC(F)(F)O2)Nc1c[nH]c2ccccc12
- IC50 [2]: 457 nM

SMILES: Fc1cnc2[nH]cc(Nc3nc4cc(C5CCCC5)ccc4[nH]3)c2c1
- AUC(0-inf) [5]: 43.8 ng·h/mL
- IC50 [2]: 52.3 nM
- MRT ([6]; iv, 1 mg/kg): 16.2 min
- half-life [7]: 25.8 min
- Vdss ([8]; iv, 1 mg/kg): 14.04 L/kg

SMILES: Fc1ccc2[nH]cc(Nc3nc4cc5c(cc4[nH]3)OC(F)(F)O5)c2c1
- IC50 [2]: 229 nM

SMILES: O=C(Nc1ccc2c(c1)OC(F)(F)O2)Nc1c[nH]c2ccccc12
- IC50 [2]: 407 nM

SMILES: CCc1ccc(NC(=O)Nc2c[nH]c3ccccc23)cc1
- AUC(0-inf) [5]: 116 ng·h/mL
- half-life [9]: 1.02 min
- CLH [10]: 2448 µL/min/mg
- inhibition [11]: Active
- inhibition [12]: Active
- half-life [13]: 12.1 min
- MRT inf ([6]; Sprague-Dawley): 12 min
- half-life [14]: 6.29 min
- inhibition [15]: Active
- CLH [16]: 103 µL/min/mg
- inhibition [17]: Active
- inhibition [18]: Active
- half-life [7]: 9.6 min
- inhibition [19]: Active
- inhibition [20]: Active
- clearance [21]: 144 mL/min/kg
- inhibition [22]: Active
- microsomal CLint [23]: 220 µL/min/mg
- CLH [24]: 873 µL/min/mg
- Vd ([8]; Sprague-Dawley, read-out: Vdss): 1.94 L/kg
- microsomal CLint [25]: 115 µL/min/mg
- microsomal CLint [26]: 1360 µL/min/mg
- Activity [27]: Active
- inhibition [28]: Active

SMILES: O=C(Nc1ccc2c(c1)OC(F)(F)O2)Nc1c[nH]c2ccc(Br)cc12
- IC50 [2]: 776 nM
